Patent publication US12630534B2 (TAKEDA PHARMACEUTICAL COMPANY LIMITED, priority 2020, dated 2026)

Target: T1, human GPR139 (Homo sapiens, UniProt Q6DWJ6)
T1 construct: expressed in transfected cells; host or cells: CHO-TREx (Life Technologies) cells, expression induced with doxycycline
T1 sequence (Q6DWJ6 1-353): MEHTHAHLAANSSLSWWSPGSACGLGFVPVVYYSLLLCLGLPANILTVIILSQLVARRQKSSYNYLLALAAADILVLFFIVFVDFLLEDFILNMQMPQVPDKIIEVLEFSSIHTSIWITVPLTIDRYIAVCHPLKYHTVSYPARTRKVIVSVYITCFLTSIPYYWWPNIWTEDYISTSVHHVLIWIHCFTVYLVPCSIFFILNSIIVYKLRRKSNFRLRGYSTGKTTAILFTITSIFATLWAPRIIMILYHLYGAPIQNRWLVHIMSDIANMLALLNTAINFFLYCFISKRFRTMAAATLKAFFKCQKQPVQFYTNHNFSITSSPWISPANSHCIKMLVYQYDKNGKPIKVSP
Experiment: Inhibition rate of the amount of IP1 in GPR139-expressed CHO cells (inverse agonist assay, Test Example 2)
Assay type: cell-based
Details: relative value, inhibition rate of Example Compound 2 in Test Example 1 defined as 100%; for inhibition at 30 µM: CHO
Protocol: The measurement of IP1 was made using an IP-ONE HTFR assay kit (cis-bio) and CHO-TREx (Life Technologies) cells stably transfected with GPR139. The CHO-TREx cells expressed human GPR139 with a tetracycline-inducing element. The cells were cultured in a medium containing F12K and 10% tetracycline-free FBS, and the expression of human GPR139 was induced over the course of 17 hours under conditions of 37° C. and 5% CO2 in the presence of 2 μg/mL of doxycycline (Clontech, 631311) in the growth medium on the day before assay. On the day of the test, after the cells were washed with 10 mL of PBS, the cells were detached with TrypLE Express (Life Technologies) and centrifuged at 1,000 rpm to form pellets, and a cell suspension was then prepared using a stimulation buffer (cis-bio, included in the IP-ONE HTRF assay kit).
The compound was diluted with the stimulation buffer, and 4 μL was added to a 384-well white assay plate (Greiner). The cell suspension was added so that there were 2000 cells per well, and the assay plate was left to stand for 40 minutes at 37° C. Equal amounts of IP1-d2 and Ab-Crp solutions (both available from cis-bio, included in the IP-ONE HTRF assay kit) prepared with a lysis buffer (cis-bio, included in the IP-ONE HTRF assay kit) were mixed, and 4 μL was added to the assay plate and left to stand for one hour at room temperature. After the fluorescence strengths of two wavelengths were measured by the HTRF settings of Envision (PerkinElmer), the value of Ratio={(Signal 665 nm)/(Signal 615 nm)}×10000 was calculated.
Measurement of the Inhibition Rate of the Amount of IP1 in GPR139-Expressed CHO Cells (Inverse Agonist Assay)
The activities of the compounds of Examples 1 and 3 to 167 were expressed as relative values in Table 2 by measuring the inhibition rate of the amount of IP1 with the same method as in Test Example 1 and defining the inhibition rate of the amount of IP1 of Example Compound 2 in Test Example 1 as […].

Compound `CCn1cc(Cn2cc(C)n(-c3cc(Br)cc(N4CCOC(C)(C)C4)c3)c2=O)cn1` [Example 137, 3-[3-bromo-5-(2,2-dimethylmorpholin-4-yl)phenyl]-1-[(1-ethyl-1H-pyrazol-4-y)methyl]-4-methyl-1,3-dihydro-2H-imidazol-2-one] has an inhibition at 30 µM of 98%.

Work on `CCn1cc(Cn2cc(C)n(-c3cc(C(F)(F)F)cc(OCC4CCCO4)n3)c2=O)cn1` (stereo not drawn) [Example 106, 1-[(1-ethyl-1H-pyrazol-4-yl)methyl]-4-methyl-3-{6-[(oxolan-2-yl)methoxy]-4-(trifluoromethyl)pyridin-2-yl}-1,3-dihydro-2H-imidazol-2-one] yielded an inhibition at 30 µM of 102%.

In the case of `CCn1cc(Cn2ccn(-c3cc(OC[C@@H]4CCCO4)cc(C(F)(F)F)c3F)c2=O)cn1` [Example 118, 1-[(1-ethyl-1H-pyrazol-4-yl)methyl]-3-[2-fluoro-5-{[(2S)-oxolan-2-yl]methoxy}-3-(trifluoromethyl)phenyl]-1,3-dihydro-2H-imidazol-2-one], the inhibition at 30 µM is reported as 100%.

In the case of `CCn1cc(Cn2cc(C)n(-c3cc(OCC4CC4(F)F)cc(C(F)(F)F)c3)c2=O)cn1` (stereo not drawn) [Example 51, 3-{3-[(2,2-difluorocyclopropyl)methoxy]-5-(trifluoromethyl)phenyl}-1-[(1-ethyl-1H-pyrazol-4-yl)methyl]-4-methyl-1,3-dihydro-2H-imidazol-2-one], the “Inhibition Rate at 30 μM” value (30 µM) is reported as 102%.

With `CCn1cc(Cn2ccn(-c3cc(N(C)C4CCOCC4)cc(C(C)(C)O)c3F)c2=O)cn1` [Example 113, 1-[(1-ethyl-1H-pyrazol-4-yl)methyl]-3-{2-fluoro-3-(2-hydroxypropan-2-yl)-5-[methyl(oxan-4-yl)amino]phenyl}-1,3-dihydro-2H-imidazol-2-one] the inhibition at 30 µM was 103%.

`CCn1cc(Cn2ccn(-c3cc(N4CCO[C@H](C)C4)cc(C4CC4(F)F)c3F)c2=O)cn1` (stereo partly drawn) [Example 78, 1-{3-(2,2-difluorocyclopropyl)-2-fluoro-5-[(2R)-2-methylmorpholin-4-yl]phenyl}-3-[(1-ethyl-1H-pyrazol-4-yl)methyl]-1,3-dihydro-2H-imidazol-2-one] was tested, and the inhibition at 30 µM was 99%.

With `CCn1cc(Cn2ccn(-c3nc(NCC4(F)CCC4)cc(C(F)(F)F)c3F)c2=O)cn1` [Example 121, 1-[(1-ethyl-1H-pyrazol-4-yl)methyl]-3-[3-fluoro-6-{[(1-fluorocyclobutyl)methyl]amino}-4-(trifluoromethyl)pyridin-2-yl]-1,3-dihydro-2H-imidazol-2-one] the inhibition at 30 µM was 101%.

With `Cc1cc(N2CCO[C@H](C)C2)cc(-n2cc(C)n(Cc3cnn(C(C)C)c3)c2=O)c1F` [Example 87, 1-{2-fluoro-3-methyl-5-[(2R)-2-methylmorpholin-4-yl]phenyl}-4-methyl-3-{[1-(propan-2-yl)-1H-pyrazol-4-yl]methyl}-1,3-dihydro-2H-imidazol-2-one] the inhibition at 30 µM was 98%.

`Cc1cn(-c2nc(N3CCO[C@H](C)C3)cc(C(F)(F)F)c2F)c(=O)n1Cc1cnn(C(C)C)c1` [Example 64, 1-{3-fluoro-6-[(2R)-2-methylmorpholin-4-yl]-4-(trifluoromethyl)pyridin-2-yl}-4-methyl-3-{[1-(propan-2-yl)-1H-pyrazol-4-yl]methyl}-1,3-dihydro-2H-imidazol-2-one] showed an inhibition at 30 µM of 98%.

`CCn1cc(Cn2c(C)c(C)n(-c3cc(N4CCO[C@H](C)C4)cc(C(F)(F)F)c3)c2=O)cn1` [Example 16, 1-[(1-ethyl-1H-pyrazol-4-yl)methyl]-4,5-dimethyl-3-(3-[(2R)-2-methylmorpholin-4-yl]-5-(trifluoromethyl)phenyl}-1,3-dihydro-2H-imidazol-2-one] was tested, and the inhibition at 30 µM was 100%.

Compound `CCn1cc(Cn2cc(C)n(-c3cc(OCC(F)(F)F)cc(N(C)C4CCOCC4)c3)c2=O)cn1` [Example 88, 1-[(1-ethyl-1H-pyrazol-4-yl)methyl]-4-methyl-3-{3-[methyl(oxan-4-yl)amino]-5-(2,2,2-trifluoroethoxy)phenyl}-1,3-dihydro-2H-imidazol-2-one] has an inhibition at 30 µM of 99%.

`CCn1cc(Cn2ccn(-c3cc(-c4ccc(F)cc4)cc(C(F)(F)F)c3)c2=O)cn1` [Example 1, 1-[(1-Ethyl-1H-pyrazole-4-yl)methyl]-3-[4′-fluoro-5-(trifluoromethyl)[1,1′-biphenyl]-3-yl]-1,3-dihydro-2H-imidazole-2-one] showed an inhibition at 30 µM of 99%.

For `CCn1cc(Cn2ccn(-c3cc(N4CCC(F)(F)CC4)cc(N4CCC(F)(F)CC4)c3F)c2=O)cn1` [Example 152, 1-[3,5-bis(4,4-difluoropiperidin-1-yl)-2-fluorophenyl]-3-[(1-ethyl-1H-pyrazol-4-yl)methyl]-1,3-dihydro-2H-imidazol-2-one], the inhibition at 30 µM was 98%.

In the case of `CCn1cc(Cn2cc(C)n(-c3cc(N4CCC(F)(F)CC4)cc(C(F)(F)F)c3)c2=O)cn1` [Example 19, 3-[3-(4,4-difluoropiperidin-1-yl)-5-(trifluoromethyl)phenyl]-1-[(1-ethyl-1H-pyrazol-4-yl)methyl]-4-methyl-1,3-dihydro-2H-imidazol-2-one], the inhibition at 30 µM is reported as 100%.

Work on `CCn1cc(Cn2c(C)cn(-c3nc(N4CCO[C@H](C)C4)cc(C(F)(F)F)c3F)c2=O)cn1` [Example 30] yielded an inhibition at 30 µM of 99%.

For `CCn1cc(Cn2c(C(F)(F)F)cn(-c3cc(N4CCO[C@H](C)C4)cc(C4CC4(F)F)c3F)c2=O)cn1` (stereo partly drawn) [Example 143, 1-{3-(2,2-difluorocyclopropyl)-2-fluoro-5-[(2R)-2-methylmorpholin-4-yl]phenyl}-3-[(1-ethyl-1H-pyrazol-4-yl)methyl]-4-(trifluoromethyl)-1,3-dihydro-2H-imidazol-2-one], the inhibition at 30 µM was 101%.

`CCn1cc(Cn2cc(C)n(-c3cc(N(C)C4CCOCC4)cc(C(F)(F)F)c3)c2=O)cn1` [Example 38, 1-[(1-ethyl-1H-pyrazol-4-yl)methyl]-4-methyl-3-{3-[methyl(oxan-4-yl)amino]-5-(trifluoromethyl)phenyl}-1,3-dihydro-2H-imidazol-2-one] was tested, and the inhibition at 30 µM was 99%.

`CCn1cc(Cn2ccn(-c3cc(N(C)C4CCOCC4)cc(C(C)(C)F)c3F)c2=O)cn1` [Example 122, 1-[(1-ethyl-1H-pyrazol-4-yl)methyl]-3-{2-fluoro-3-(2-fluoropropan-2-yl)-5-[methyl(oxan-4-yl)amino]phenyl}-1,3-dihydro-2H-imidazol-2-one] showed an inhibition at 30 µM of 103%.

Work on `CCn1cc(Cn2cc(C)n(-c3cc(OC[C@@H]4CCCO4)cc(C(F)(F)F)c3F)c2=O)cn1` [Example 107, 1-[(1-ethyl-1H-pyrazol-4-yl)methyl]-3-[2-fluoro-5-{[(2S)-oxolan-2-yl]methoxy}-3-(trifluoromethyl)phenyl]-4-methyl-1,3-dihydro-2H-imidazol-2-one] yielded an inhibition at 30 µM of 104%.

For `CCc1cc(N2CCO[C@H](C)C2)cc(-n2cc(C)n(Cc3cnn(CC)c3)c2=O)c1F` [Example 81, 1-{3-ethyl-2-fluoro-5-[(2R)-2-methylmorpholin-4-yl]phenyl}-3-[(1-ethyl-1H-pyrazol-4-yl)methyl]-4-methyl-1,3-dihydro-2H-imidazol-2-one], the inhibition at 30 µM was 98%.

Work on `CCn1cc(Cn2ccn(-c3cc(N4CCO[C@H](C)C4)cc(C(F)(F)F)c3C)c2=O)cn1` [Example 8, 1-[(1-ethyl-1H-pyrazol-4-yl)methyl]-3-{2-methyl-5-[(2R)-2-methylmorpholin-4-yl]-3-(trifluoromethyl)phenyl}-1,3-dihydro-2H-imidazol-2-one] yielded an inhibition at 30 µM of 101%.
